Measurements: EP0626016B1, “[…] […]” (BRITISH TECHNOLOGY GROUP LIMITED, priority 1992, dated 1993)
Like-named read-outs stand apart in the source and are kept apart here.

Target: T1, HRP Type VIA (Armoracia rusticana, UniProt P00433)
T1 sequence (P00433 31-338): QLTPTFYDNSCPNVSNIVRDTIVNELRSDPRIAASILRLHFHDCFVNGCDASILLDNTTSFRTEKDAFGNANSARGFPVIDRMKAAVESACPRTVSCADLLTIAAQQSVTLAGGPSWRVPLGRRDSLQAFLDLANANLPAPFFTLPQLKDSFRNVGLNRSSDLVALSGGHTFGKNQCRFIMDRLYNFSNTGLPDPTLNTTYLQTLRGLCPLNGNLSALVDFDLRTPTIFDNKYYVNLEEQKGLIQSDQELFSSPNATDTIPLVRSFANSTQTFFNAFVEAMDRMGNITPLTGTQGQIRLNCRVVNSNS
Conditions: for (d) Signal: Background: ratio (control = with no enhancer): control value in brackets not reported

Cc1ccccc1B(O)O [Compound 1009, 2-tolueneboronic acid]
(a) Decrease in background (without HRP with test cpd.) (0.01 mg/ml, 10µl test compound): Y
(b) Increase in signal (with HRP, with test cpd.) (0.01 mg/ml, 10µl test compound): N
(c) Increase in signal: background ratio (0.01 mg/ml, 10µl test compound): N (N = no)
(d) Signal: Background: ratio (control = with no enhancer) (0.01 mg/ml, 10µl test compound): 1.9
(a) Decrease in background (without HRP with test cpd.) (0.1 mg/ml, 10µl test compound): Y
(b) Increase in signal (with HRP, with test cpd.) (0.1 mg/ml, 10µl test compound): N
(c) Increase in signal: background ratio (0.1 mg/ml, 10µl test compound): Y (Column (c) shows whether there was an increase in the signal:background ratio by over 25% of the control value (Y = yes)
(d) Signal: Background: ratio (control = with no enhancer) (0.1 mg/ml, 10µl test compound): 2.5
(a) Decrease in background (without HRP with test cpd.) (1 mg/ml, 10µl test compound): Y
(b) Increase in signal (with HRP, with test cpd.) (1 mg/ml, 10µl test compound): N
(c) Increase in signal: background ratio (1 mg/ml, 10µl test compound): N (N = no)
(d) Signal: Background: ratio (control = with no enhancer) (1 mg/ml, 10µl test compound): 0.6 (1.8)

OB(O)c1ccc(Oc2ccccc2)cc1 [Compound 1010, 4-(phenoxy)benzeneboronic acid]
(a) Decrease in background (without HRP with test cpd.) (0.01 mg/ml, 10µl test compound): Y
(b) Increase in signal (with HRP, with test cpd.) (0.01 mg/ml, 10µl test compound): N
(c) Increase in signal: background ratio (0.01 mg/ml, 10µl test compound): N (N = no)
(d) Signal: Background: ratio (control = with no enhancer) (0.01 mg/ml, 10µl test compound): 3.0
(a) Decrease in background (without HRP with test cpd.) (0.1 mg/ml, 10µl test compound): Y
(b) Increase in signal (with HRP, with test cpd.) (0.1 mg/ml, 10µl test compound): N
(c) Increase in signal: background ratio (0.1 mg/ml, 10µl test compound): Y (Column (c) shows whether there was an increase in the signal:background ratio by over 25% of the control value (Y = yes)
(d) Signal: Background: ratio (control = with no enhancer) (0.1 mg/ml, 10µl test compound): 4.6
(a) Decrease in background (without HRP with test cpd.) (1 mg/ml, 10µl test compound): Y
(b) Increase in signal (with HRP, with test cpd.) (1 mg/ml, 10µl test compound): N
(c) Increase in signal: background ratio (1 mg/ml, 10µl test compound): Y (Column (c) shows whether there was an increase in the signal:background ratio by over 25% of the control value (Y = yes)
(d) Signal: Background: ratio (control = with no enhancer) (1 mg/ml, 10µl test compound): 5.0 (2.5)

c1ccc(B2OCCCO2)cc1 [Compound 1012, 2-phenyl-1,3,2-dioxaborinane]
(a) Decrease in background (without HRP with test cpd.) (0.01 mg/ml, 10µl test compound): N
(b) Increase in signal (with HRP, with test cpd.) (0.01 mg/ml, 10µl test compound): Y
(c) Increase in signal: background ratio (0.01 mg/ml, 10µl test compound): N (N = no)
(d) Signal: Background: ratio (control = with no enhancer) (0.01 mg/ml, 10µl test compound): 2.2
(a) Decrease in background (without HRP with test cpd.) (0.1 mg/ml, 10µl test compound): N
(b) Increase in signal (with HRP, with test cpd.) (0.1 mg/ml, 10µl test compound): N
(c) Increase in signal: background ratio (0.1 mg/ml, 10µl test compound): N (N = no)
(d) Signal: Background: ratio (control = with no enhancer) (0.1 mg/ml, 10µl test compound): 2.2
(a) Decrease in background (without HRP with test cpd.) (1 mg/ml, 10µl test compound): Y
(b) Increase in signal (with HRP, with test cpd.) (1 mg/ml, 10µl test compound): N
(c) Increase in signal: background ratio (1 mg/ml, 10µl test compound): Y (Column (c) shows whether there was an increase in the signal:background ratio by over 25% of the control value (Y = yes)
(d) Signal: Background: ratio (control = with no enhancer) (1 mg/ml, 10µl test compound): 17.1 (2.5)

c1ccc([B-](c2ccccc2)(c2ccccc2)c2ccccc2)cc1 [Compound 1016, tetraphenylboron sodium]
(a) Decrease in background (without HRP with test cpd.): Y
(b) Increase in signal (with HRP, with test cpd.): N
(c) Increase in signal: background ratio: N (key: column (a) shows whether the test compound lowered the light output from the luminol-hydrogen peroxide solution (Y = yes; N = no)

OCC(CO)(CO)COB(O)O [Compound 1017, pentaerythritol borate]
(a) Decrease in background (without HRP with test cpd.) (0.01 mg/ml, 10µl test compound): Y
(b) Increase in signal (with HRP, with test cpd.) (0.01 mg/ml, 10µl test compound): N
(c) Increase in signal: background ratio (0.01 mg/ml, 10µl test compound): N (N = no)
(d) Signal: Background: ratio (control = with no enhancer) (0.01 mg/ml, 10µl test compound): 1.8
(a) Decrease in background (without HRP with test cpd.) (0.1 mg/ml, 10µl test compound): Y
(b) Increase in signal (with HRP, with test cpd.) (0.1 mg/ml, 10µl test compound): Y
(c) Increase in signal: background ratio (0.1 mg/ml, 10µl test compound): Y (Column (c) shows whether there was an increase in the signal:background ratio by over 25% of the control value (Y = yes)
(d) Signal: Background: ratio (control = with no enhancer) (0.1 mg/ml, 10µl test compound): 2.5
(a) Decrease in background (without HRP with test cpd.) (1 mg/ml, 10µl test compound): Y
(b) Increase in signal (with HRP, with test cpd.) (1 mg/ml, 10µl test compound): N
(c) Increase in signal: background ratio (1 mg/ml, 10µl test compound): N (N = no)
(d) Signal: Background: ratio (control = with no enhancer) (1 mg/ml, 10µl test compound): 1.8 (1.8)

O=C(O)c1ccc(N=Nc2ccc(O)c(B(O)O)c2)cc1 [Compound 1018, 4-(3'-borono-4'-hydroxyphenylazo)benzoic acid]
(a) Decrease in background (without HRP with test cpd.) (0.01 mg/ml, 10µl test compound): Y
(b) Increase in signal (with HRP, with test cpd.) (0.01 mg/ml, 10µl test compound): N
(c) Increase in signal: background ratio (0.01 mg/ml, 10µl test compound): Y (Column (c) shows whether there was an increase in the signal:background ratio by over 25% of the control value (Y = yes)
(d) Signal: Background: ratio (control = with no enhancer) (0.01 mg/ml, 10µl test compound): 5.0
(a) Decrease in background (without HRP with test cpd.) (0.1 mg/ml, 10µl test compound): Y
(b) Increase in signal (with HRP, with test cpd.) (0.1 mg/ml, 10µl test compound): N
(c) Increase in signal: background ratio (0.1 mg/ml, 10µl test compound): Y (Column (c) shows whether there was an increase in the signal:background ratio by over 25% of the control value (Y = yes)
(d) Signal: Background: ratio (control = with no enhancer) (0.1 mg/ml, 10µl test compound): 24.5
(a) Decrease in background (without HRP with test cpd.) (1 mg/ml, 10µl test compound): Y
(b) Increase in signal (with HRP, with test cpd.) (1 mg/ml, 10µl test compound): N
(c) Increase in signal: background ratio (1 mg/ml, 10µl test compound): Y (Column (c) shows whether there was an increase in the signal:background ratio by over 25% of the control value (Y = yes)
(d) Signal: Background: ratio (control = with no enhancer) (1 mg/ml, 10µl test compound): 4.2 (1.9)

CC(C)COB(c1ccccc1)c1ccccc1 [Compound 1019, diphenylisobutoxyborane]
(a) Decrease in background (without HRP with test cpd.) (0.01 mg/ml, 10µl test compound): Y
(b) Increase in signal (with HRP, with test cpd.) (0.01 mg/ml, 10µl test compound): N
(c) Increase in signal: background ratio (0.01 mg/ml, 10µl test compound): Y (Column (c) shows whether there was an increase in the signal:background ratio by over 25% of the control value (Y = yes)
(d) Signal: Background: ratio (control = with no enhancer) (0.01 mg/ml, 10µl test compound): 3.2 (2.0)
(a) Decrease in background (without HRP with test cpd.) (0.1 mg/ml, 10µl test compound): Y
(b) Increase in signal (with HRP, with test cpd.) (0.1 mg/ml, 10µl test compound): N
(c) Increase in signal: background ratio (0.1 mg/ml, 10µl test compound): N (N = no)
(d) Signal: Background: ratio (control = with no enhancer) (0.1 mg/ml, 10µl test compound): 3.0 (2.9)
(a) Decrease in background (without HRP with test cpd.) (1 mg/ml, 10µl test compound): Y
(b) Increase in signal (with HRP, with test cpd.) (1 mg/ml, 10µl test compound): N
(c) Increase in signal: background ratio (1 mg/ml, 10µl test compound): N (N = no)

OB(O)c1c(Cl)cc(Cl)cc1Cl [Compound 1020, 2,4,6-trichlorophenylboronic acid]
(a) Decrease in background (without HRP with test cpd.) (0.01 mg/ml, 10µl test compound): Y
(b) Increase in signal (with HRP, with test cpd.) (0.01 mg/ml, 10µl test compound): N
(c) Increase in signal: background ratio (0.01 mg/ml, 10µl test compound): N (N = no)
(d) Signal: Background: ratio (control = with no enhancer) (0.01 mg/ml, 10µl test compound): 2.2 (2.0)
(a) Decrease in background (without HRP with test cpd.) (0.1 mg/ml, 10µl test compound): Y
(b) Increase in signal (with HRP, with test cpd.) (0.1 mg/ml, 10µl test compound): N
(c) Increase in signal: background ratio (0.1 mg/ml, 10µl test compound): N (N = no)
(a) Decrease in background (without HRP with test cpd.) (1 mg/ml, 10µl test compound): Y
(b) Increase in signal (with HRP, with test cpd.) (1 mg/ml, 10µl test compound): N
(c) Increase in signal: background ratio (1 mg/ml, 10µl test compound): N (N = no)
